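Dose response: 5 concentrations. Exposure: 48 h. Format: 96-well plates. Endpoint: linear interpolation; highest concentration if not reached. The concentration for 50% growth inhibition is given as GI50.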 Calls of active or inactive are those of the source. Rule as the data show it: active = GI50 up to about 1.1 µM and inactive = higher.
Columns and labels:
Test in all cases: NCI-60 cell line screen, 48 h
SF-268 = tested on: SF-268
HCT-15 = tested on: HCT-15
SN12C = tested on: SN12C
HCC 2998 = tested on: HCC 2998
SK-MEL-2 = tested on: SK-MEL-2
UACC-62 = tested on: UACC-62
786-0 = tested on: 786-0
HOP-62 = tested on: HOP-62
Malme-3M = tested on: Malme-3M
OVCAR-8 = tested on: OVCAR-8
SK-OV-3 = tested on: SK-OV-3
SF-539 = tested on: SF-539
A549 = tested on: A549
U-251 = tested on: U-251
IGROV-1 = tested on: IGROV-1
HOP-92 = tested on: HOP-92
UO-31 = tested on: UO-31
RXF 393 = tested on: RXF 393

Structure (SMILES)	GI50 (SF-268)	GI50 (HCT-15)	GI50 (SN12C)	GI50 (HCC 2998)	GI50 (SK-MEL-2)	GI50 (UACC-62)	GI50 (786-0)	GI50 (HOP-62)	GI50 (Malme-3M)	GI50 (OVCAR-8)	GI50 (SK-OV-3)	GI50 (SF-539)	GI50 (A549)	GI50 (U-251)	GI50 (IGROV-1)	GI50 (HOP-92)	GI50 (UO-31)	GI50 (RXF 393)
COc1ccccc1NC(=O)C1=C(C)NC(C)=C(C(=O)Nc2ccccc2OC)C1c1ccccc1Cl	> 100 µM (inactive)	56.2 µM	> 100 µM (inactive)	> 100 µM (inactive)	88.7 µM (inactive)	> 100 µM (inactive)	> 100 µM (inactive)	> 100 µM (inactive)	> 100 µM (inactive)	> 100 µM (inactive)	> 100 µM (inactive)	26.1 µM (inactive)	41.6 µM (inactive)	78.3 µM (inactive)	> 100 µM (inactive)	> 100 µM (inactive)	28.5 µM (inactive)	
CCOC(=O)C1=C(O)C(=O)c2ccccc2C1=O	> 100 µM (inactive)	> 100 µM	> 100 µM (inactive)	> 100 µM (inactive)	> 100 µM (inactive)	48 µM (inactive)	> 100 µM (inactive)	> 100 µM (inactive)	50.6 µM (inactive)	> 100 µM (inactive)	> 100 µM (inactive)	> 100 µM (inactive)	> 100 µM (inactive)	> 100 µM (inactive)	> 100 µM (inactive)	> 100 µM (inactive)	> 100 µM (inactive)	> 100 µM (inactive)
Clc1cccc(N2CCN(CCCN3CCc4c([nH]c5ccccc45)C3c3cccnc3)CC2)c1 (stereo not drawn)		8.81 µM	12.8 µM (inactive)		11 µM (inactive)	> 10 µM (inactive)	3.29 µM (inactive)	14.3 µM (inactive)	2.54 µM (inactive)	10.8 µM (inactive)	14.6 µM (inactive)	3.61 µM (inactive)	7.78 µM (inactive)	10.7 µM (inactive)	29.6 µM (inactive)	8.69 µM (inactive)	5.15 µM (inactive)	1.58 µM (inactive)
O=C1C(c2ccccc2)=C(c2ccccc2)C(c2ccccc2)/C1=C1\C(=O)C(c2ccccc2)=C(c2ccccc2)C1c1ccccc1 (stereo not drawn)	> 100 µM (inactive)	> 100 µM	> 100 µM (inactive)	> 100 µM (inactive)	> 100 µM (inactive)	> 100 µM (inactive)	> 100 µM (inactive)	> 100 µM (inactive)	> 100 µM (inactive)	> 100 µM (inactive)	> 100 µM (inactive)	> 100 µM (inactive)	> 100 µM (inactive)	> 100 µM (inactive)	> 100 µM (inactive)	> 100 µM (inactive)	> 100 µM (inactive)	> 100 µM (inactive)
C/C(=N/NS(=O)(=O)c1c(C)cc(C)cc1C)c1cccc[n+]1[O-]	> 100 µM (inactive)	> 100 µM	> 100 µM (inactive)	> 100 µM (inactive)		> 100 µM (inactive)	> 100 µM (inactive)	> 100 µM (inactive)		> 100 µM (inactive)	> 100 µM (inactive)	> 100 µM (inactive)	> 100 µM (inactive)	> 100 µM (inactive)	> 100 µM (inactive)	> 100 µM (inactive)	> 100 µM (inactive)	
COc1ccc(/N=N/C(C(=O)c2ccccc2)C(=O)c2ccccc2)cc1	23.8 µM (inactive)	15.1 µM	21 µM (inactive)	44.7 µM (inactive)	21.9 µM (inactive)	16 µM (inactive)	19.9 µM (inactive)	23.3 µM (inactive)	24.9 µM (inactive)	22.4 µM (inactive)	45.9 µM (inactive)	25.4 µM (inactive)	21.3 µM (inactive)	15.7 µM (inactive)	34.7 µM (inactive)		16.9 µM (inactive)	
O=C1C=CC(=O)C12CCc1ccccc12	> 100 µM (inactive)	> 72.8 µM	> 100 µM (inactive)	> 100 µM (inactive)	> 100 µM (inactive)	> 100 µM (inactive)	> 100 µM (inactive)	> 100 µM (inactive)	> 100 µM (inactive)	> 100 µM (inactive)	> 100 µM (inactive)	> 100 µM (inactive)	> 100 µM (inactive)	> 100 µM (inactive)	> 100 µM (inactive)	> 100 µM (inactive)	> 100 µM (inactive)	> 94.6 µM (inactive)
Clc1ccc(-c2c(C3=NCCCN3)nnn2-c2ccccc2)cc1	> 100 µM (inactive)	43.6 µM	> 100 µM (inactive)	> 100 µM (inactive)	> 100 µM (inactive)	> 100 µM (inactive)	> 100 µM (inactive)	> 100 µM (inactive)	> 100 µM (inactive)	> 100 µM (inactive)	> 100 µM (inactive)	> 100 µM (inactive)	> 100 µM (inactive)	> 100 µM (inactive)	> 100 µM (inactive)	34.9 µM (inactive)	71.9 µM (inactive)	> 100 µM (inactive)
Cc1ccc(C(=O)N2c3ccccc3N(C)n3cccc3C2CC(=O)O)cc1 (stereo not drawn)	> 100 µM (inactive)	> 100 µM	> 100 µM (inactive)	> 100 µM (inactive)	> 100 µM (inactive)	> 100 µM (inactive)	> 100 µM (inactive)	> 100 µM (inactive)	> 100 µM (inactive)	> 100 µM (inactive)		> 100 µM (inactive)	> 100 µM (inactive)		> 100 µM (inactive)	> 100 µM (inactive)	> 100 µM (inactive)	> 100 µM (inactive)
C[C@]12CCC(=O)C(O)=C1CCC2=O	> 100 µM (inactive)	> 100 µM	> 100 µM (inactive)	> 100 µM (inactive)		> 100 µM (inactive)	> 100 µM (inactive)	> 100 µM (inactive)	> 100 µM (inactive)	> 100 µM (inactive)	> 100 µM (inactive)	> 100 µM (inactive)	> 100 µM (inactive)	> 100 µM (inactive)	> 100 µM (inactive)	> 100 µM (inactive)	> 100 µM (inactive)	> 100 µM (inactive)
CC(=O)OCCOCNC(=S)N/N=C/c1ccc([N+](=O)[O-])s1	61.9 µM (inactive)	30.4 µM	36.4 µM (inactive)	43.2 µM (inactive)	67.3 µM (inactive)	24.3 µM (inactive)	> 100 µM (inactive)	> 100 µM (inactive)	48.4 µM (inactive)	45.5 µM (inactive)	> 100 µM (inactive)	34 µM (inactive)	43.4 µM (inactive)	32.1 µM (inactive)	34 µM (inactive)	> 100 µM (inactive)	> 100 µM (inactive)	> 100 µM (inactive)
CCOC(=O)C1(Br)S(=O)(=O)OCCOS1(=O)=O	> 100 µM (inactive)	> 100 µM	> 100 µM (inactive)	> 100 µM (inactive)	> 100 µM (inactive)	> 100 µM (inactive)	> 100 µM (inactive)	> 100 µM (inactive)	> 100 µM (inactive)	> 100 µM (inactive)	> 100 µM (inactive)	> 100 µM (inactive)	> 100 µM (inactive)	> 100 µM (inactive)	> 100 µM (inactive)	> 100 µM (inactive)	> 100 µM (inactive)	> 100 µM (inactive)
CCOC(=O)C1=C(Nc2ccc(Cl)cc2Cl)OCC1=O	> 100 µM (inactive)	> 100 µM	> 100 µM (inactive)	> 100 µM (inactive)	> 100 µM (inactive)	> 100 µM (inactive)	> 100 µM (inactive)	> 100 µM (inactive)	> 100 µM (inactive)	> 100 µM (inactive)	> 100 µM (inactive)	> 100 µM (inactive)	> 100 µM (inactive)	> 100 µM (inactive)	> 100 µM (inactive)	> 100 µM (inactive)	> 100 µM (inactive)	
CCOC(=N)CC(=O)Nc1cccc(C)c1C	> 100 µM (inactive)		> 100 µM (inactive)	> 100 µM (inactive)	> 100 µM (inactive)	> 100 µM (inactive)	> 100 µM (inactive)	> 100 µM (inactive)	> 100 µM (inactive)	> 100 µM (inactive)	> 100 µM (inactive)	> 100 µM (inactive)	> 100 µM (inactive)	> 100 µM (inactive)	> 100 µM (inactive)		> 100 µM (inactive)	> 100 µM (inactive)
Cc1cccc(C)c1N1C(=O)C(=O)C(c2nc3ccccc3s2)/C(=N/NC(=O)c2ccccc2O)C1=O (stereo not drawn)	6.75 µM (inactive)	14.7 µM	18.4 µM (inactive)	24.6 µM (inactive)	11 µM (inactive)	2.08 µM (inactive)	13.2 µM (inactive)	9.18 µM (inactive)	33 µM (inactive)	21 µM (inactive)	50.7 µM (inactive)	6.87 µM (inactive)	11.7 µM (inactive)	20.6 µM (inactive)	3.26 µM (inactive)	15.7 µM (inactive)	4.78 µM (inactive)	3.09 µM (inactive)
CC1CCCC2(O1)OC1CC(=O)OC1C1=C2C(=O)c2ccccc2C1=O (stereo not drawn)	4.02 µM (inactive)	2.8 µM	2.18 µM (inactive)	2.37 µM (inactive)	2.33 µM (inactive)	2.25 µM (inactive)	2.14 µM (inactive)	16.4 µM (inactive)	2.45 µM (inactive)	2.51 µM (inactive)	16.4 µM (inactive)	5.81 µM (inactive)	16.9 µM (inactive)	18.2 µM (inactive)	2.65 µM (inactive)		2.13 µM (inactive)	2.13 µM (inactive)

From ChEMBL document CHEMBL1201862, “PubChem BioAssay data set” (2004)
